Reference: PMC11324046, “Second-generation piperazine derivatives as promising radiation countermeasures” (RSC Medicinal Chemistry, 2024)

Experiments:
[1] = WST-1 proliferation assay, SAOS-2; assay type: cell-based; settings: human, SAOS-2 cells (osteosarcoma), vs 0.1% DMSO control = 100%, mean ± standard deviation
Experimental: (§1) A thorough analysis of antiproliferative activity was performed across various cell culture types representing different histotypes: leukemia (Jurkat, MOLT-4), lung adenocarcinoma (A549), colorectal adenocarcinoma (HT-29), pancreatic carcinoma (PANC-1), breast adenocarcinoma (MCF-7), osteosarcoma (SAOS-2), and one non-cancerous cell line (fetal lung fibroblasts MRC-5). The cell lines were exposed to the newly synthesized compounds at a concentration of 100 μM for 48 h in a single-dose treatment. Changes in cell proliferation compared to the vehicle 0.1% dimethyl sulfoxide (DMSO) control were determined using the WST-1 assay, which is based on mitochondrial dehydrogenase metabolic activities. […] The overall cytotoxic activity of each compound was expressed as growth percent (GP) – the mean of the proliferation of all cell lines treated with the same compound.
(§2) Selected human tumor and non-tumor cell lines Jurkat (acute T-cell leukemia), MOLT-4 (acute lymphoblastic leukemia), A549 (lung carcinoma), HT-29 (colorectal adenocarcinoma), PANC-1 (pancreas epithelioid carcinoma), MCF-7 (breast adenocarcinoma), SAOS-2 (osteosarcoma) and MRC-5 (normal lung fibroblasts) were purchased from either American Type Culture Collection (ATCC; VA, USA) or Sigma-Aldrich (St. Louis, MO, USA) and cultured according to the provider's culture method guidelines. All cell lines were maintained at 37 °C in a humidified 5% carbon dioxide and 95% air incubator. Cells in the maximum range of either 10 passages for the adherent cell lines (A549, HT-29, PANC-1, MCF-7, SAOS-2, and MRC-5), or 20 passages for suspension cell lines (Jurkat, MOLT-4,) and in an exponential growth phase were used for this study. Screening of the antiproliferative effect and growth percent calculation were conducted as follows: each cell line was seeded at previously established optimal density (1–50 × 10^3 cells per well) in a 96-well plate (TPP, Trasadingen, Switzerland) and cells were allowed to settle overnight. Cells were treated for 48 h with compounds at a final concentration of 100 μM. At the end of the cultivation period, the WST-1 proliferation assay (Roche, Basel, Switzerland) was performed according to the manufacturer's protocol. The absorbance was measured at 440 nm using a Tecan Spark multimode microplate reader (Tecan, Mannedorf, Switzerland). Each value is the mean of three independent experiments and represents the percentage of proliferation (100% cell proliferation for 0.1% DMSO mock-treated control cells). The GP value was calculated for each compound tested. GP represents the mean of the percentage proliferation decrease of all cell lines treated with the same compound.

[2] = WST-1 proliferation assay, MRC-5; assay type: cell-based; settings: human, MRC-5 cells (normal lung fibroblasts), vs 0.1% DMSO control = 100%, mean ± standard deviation
Experimental: as §1, §2

[3] = test system: PBMCs; assay: Ex vivo cytotoxicity on PBMCs, MTS colorimetric assay; settings: 48 h
Experimental: To represent the overall inhibitory activity of each compound, viability was calculated as the mean of at least three independent measurements. The purpose was to determine the optimal non-toxic concentration for subsequent use in radioprotection tests.
Whole blood from a healthy donor was diluted 1 : 1 with Dulbecco's phosphate buffered saline (Sigma-Aldrich, St. Louis, MO, USA). The diluted blood was slowly and carefully pipetted onto an equal volume of Histopaque®-1077 (Sigma-Aldrich, St. Louis, MO, USA). The entire process was carried out at room temperature. Subsequently, centrifugation was performed at 700 × g with the slowest acceleration and deceleration for 20 min at 20 °C. The resulting PBMCs ring was aspirated and centrifuged at 450 × g for 10 min at 20 °C with normal acceleration and deceleration. The cells were washed twice with RPMI 1640 medium with GlutaMAX (Gibco by Thermo Fisher Scientific, Waltham, MA, USA). After the second wash and centrifugation, the cells were diluted with cultivation medium RPMI 1640 with GlutaMAX supplemented with 20% inactivated fetal bovine serum (both Gibco by Thermo Fisher Scientific, Waltham, MA, USA) and 1% antibiotic solution of penicillin, 10 000 IU ml^−1 and streptomycin, 10 mg ml^−1 (Sigma-Aldrich, St. Louis, MO, USA). At the end, the cells were counted using Türk's solution.
PBMCs were plated into 96-well plates at a cell density of approximately 5 × 10^4 cells per well in a volume of 100 μl. Cells were treated with tested compounds in concentrations of 10, 20, 50, 100, 200, 500, and 1000 μM to determine the optimal non-toxic concentration for each. Cells were incubated for 48 h in a humidified atmosphere with 5% CO2 at 37 °C. 20 μl of MTS – CellTiter 96® AQueous One Solution Cell Proliferation Assay (Promega, Madison, WI, USA) was added to each well 4 h before spectrometric analysis. Cell viability was then determined by measuring absorbance at 490 nm using the Synergy H1 instrument by BioTek. The absorbance of the cell-free culture medium was used as a blank and subtracted from the absorbance readings obtained during the experiment. The viability of untreated control cells was set as 100%.

Compound	viability at 48 h, 100 µM [1] [%]	viability at 48 h, 100 µM [2] [%]	Decrease in cell viability of PBMCs ([3]; 10 μM (lowest tested concentration)) [%]	Change of PBMC viability (in words) ([3]; 20 μM)	Optimal non-toxic concentration (PBMC viability not below 100% at 0.05 significance level and higher than 90%) ([3]; PBMCs, MTS) [µM]	Optimal non-toxic concentration (PBMC viability not below 100% at 0.05 significance level and higher than 90%) ([3]; male, human) [µM]
NCCCNCCS [WR1065, reference compound]	7 ± 4	3 ± 1	43			
NCCCNCCSP(=O)(O)O [WR2721, amifostine, reference compound]	9 ± 3	8 ± 4		significant decrease	10	
OCCN1CCN(CC(O)COc2cccc(Cl)c2)CC1 (stereo not shown) [Compound 6, 1-(4-(2-Hydroxyethyl)piperazin-1-yl)-3-(3-chlorophenoxy)propan-2-ol]	120 ± 26	97 ± 1				500
COc1ccc(OCC(O)CN2CCN(CCO)CC2)c([N+](=O)[O-])c1 (stereo not shown) [Compound 2, 1-(4-(2-Hydroxyethyl)piperazin-1-yl)-3-(4-methoxy-2-nitrophenoxy)propan-2-ol]	103 ± 9	105 ± 1				500
O=[N+]([O-])c1cc(OCC(O)CN2CCN(CCO)CC2)ccc1Cl (stereo not shown) [Compound 5, 1-(4-(2-Hydroxyethyl)piperazin-1-yl)-3-(4-chloro-3-nitrophenoxy)propan-2-ol]	89 ± 3	98 ± 3				200
OCCN1CCN(CC(O)COc2ccc(F)cc2)CC1 (stereo not shown) [Compound 4, 1-(4-(2-Hydroxyethyl)piperazin-1-yl)-3-(4-fluorophenoxy)propan-2-ol]	102 ± 6	103 ± 2				1000
O=[N+]([O-])c1ccc(OCC(O)CN2CCN(CCO)CC2)c(F)c1 (stereo not shown) [Compound 3, 1-(4-(2-Hydroxyethyl)piperazin-1-yl)-3-(2-fluoro-4-nitrophenoxy)propan-2-ol]	92 ± 14	103 ± 6				500
COc1cc([N+](=O)[O-])ccc1OCC(O)CN1CCN(CCO)CC1 (stereo not shown) [Compound 1, 1-(4-(2-Hydroxyethyl)piperazin-1-yl)-3-(2-methoxy-4-nitrophenoxy)propan-2-ol]	101 ± 16	111 ± 9				500
